Data: ChEMBL document CHEMBL5143515, “Identification of new halogen-containing 2,4-diphenyl indenopyridin-5-one derivative as a boosting agent for the anticancer responses of clinically available topoisomerase inhibitors” (Eur J Med Chem, 2022)
Where a name gives a salt, the structure may show the parent alone.

What was measured:
[1] = molecular target: T1, DNA topoisomerase 1 (Homo sapiens) (UniProt P11387); test: Inhibition of recombinant human topoisomerase 1 assessed as relaxation of supercoiled plasmid pBR322 DNA at 20 uM by agarose gel electrophoresis (reference value: 40.4%)
T1 sequence (whole entry): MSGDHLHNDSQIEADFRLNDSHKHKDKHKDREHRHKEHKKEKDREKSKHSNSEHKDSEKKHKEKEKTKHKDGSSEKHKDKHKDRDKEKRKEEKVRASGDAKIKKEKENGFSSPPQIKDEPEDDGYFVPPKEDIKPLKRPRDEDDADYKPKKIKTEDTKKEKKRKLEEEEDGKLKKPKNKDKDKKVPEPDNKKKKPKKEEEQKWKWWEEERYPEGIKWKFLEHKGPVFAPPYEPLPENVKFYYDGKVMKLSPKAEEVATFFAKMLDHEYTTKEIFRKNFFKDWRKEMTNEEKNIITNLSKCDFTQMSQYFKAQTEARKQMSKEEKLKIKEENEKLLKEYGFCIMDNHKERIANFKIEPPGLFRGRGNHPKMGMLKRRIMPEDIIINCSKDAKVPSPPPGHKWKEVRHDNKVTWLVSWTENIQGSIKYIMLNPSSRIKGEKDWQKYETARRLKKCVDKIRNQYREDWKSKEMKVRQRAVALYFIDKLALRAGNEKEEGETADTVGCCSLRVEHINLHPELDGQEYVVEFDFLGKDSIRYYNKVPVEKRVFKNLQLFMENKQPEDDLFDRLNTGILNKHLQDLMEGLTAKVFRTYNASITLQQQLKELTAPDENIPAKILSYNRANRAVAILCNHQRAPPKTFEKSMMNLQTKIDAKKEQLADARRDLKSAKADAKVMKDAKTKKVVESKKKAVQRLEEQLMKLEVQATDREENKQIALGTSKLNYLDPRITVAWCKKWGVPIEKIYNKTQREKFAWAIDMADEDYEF

[2] = molecular target: DNA topoisomerase 2-alpha (Homo sapiens) (UniProt P11388); test: Inhibition of recombinant human topoisomerase 2alpha assessed as relaxation of supercoiled plasmid pBR322 DNA at 100 uM by agarose gel electrophoresis (reference value: 82.2%)
Chain of DNA topoisomerase 2-alpha (Homo sapiens) (P11388 whole entry): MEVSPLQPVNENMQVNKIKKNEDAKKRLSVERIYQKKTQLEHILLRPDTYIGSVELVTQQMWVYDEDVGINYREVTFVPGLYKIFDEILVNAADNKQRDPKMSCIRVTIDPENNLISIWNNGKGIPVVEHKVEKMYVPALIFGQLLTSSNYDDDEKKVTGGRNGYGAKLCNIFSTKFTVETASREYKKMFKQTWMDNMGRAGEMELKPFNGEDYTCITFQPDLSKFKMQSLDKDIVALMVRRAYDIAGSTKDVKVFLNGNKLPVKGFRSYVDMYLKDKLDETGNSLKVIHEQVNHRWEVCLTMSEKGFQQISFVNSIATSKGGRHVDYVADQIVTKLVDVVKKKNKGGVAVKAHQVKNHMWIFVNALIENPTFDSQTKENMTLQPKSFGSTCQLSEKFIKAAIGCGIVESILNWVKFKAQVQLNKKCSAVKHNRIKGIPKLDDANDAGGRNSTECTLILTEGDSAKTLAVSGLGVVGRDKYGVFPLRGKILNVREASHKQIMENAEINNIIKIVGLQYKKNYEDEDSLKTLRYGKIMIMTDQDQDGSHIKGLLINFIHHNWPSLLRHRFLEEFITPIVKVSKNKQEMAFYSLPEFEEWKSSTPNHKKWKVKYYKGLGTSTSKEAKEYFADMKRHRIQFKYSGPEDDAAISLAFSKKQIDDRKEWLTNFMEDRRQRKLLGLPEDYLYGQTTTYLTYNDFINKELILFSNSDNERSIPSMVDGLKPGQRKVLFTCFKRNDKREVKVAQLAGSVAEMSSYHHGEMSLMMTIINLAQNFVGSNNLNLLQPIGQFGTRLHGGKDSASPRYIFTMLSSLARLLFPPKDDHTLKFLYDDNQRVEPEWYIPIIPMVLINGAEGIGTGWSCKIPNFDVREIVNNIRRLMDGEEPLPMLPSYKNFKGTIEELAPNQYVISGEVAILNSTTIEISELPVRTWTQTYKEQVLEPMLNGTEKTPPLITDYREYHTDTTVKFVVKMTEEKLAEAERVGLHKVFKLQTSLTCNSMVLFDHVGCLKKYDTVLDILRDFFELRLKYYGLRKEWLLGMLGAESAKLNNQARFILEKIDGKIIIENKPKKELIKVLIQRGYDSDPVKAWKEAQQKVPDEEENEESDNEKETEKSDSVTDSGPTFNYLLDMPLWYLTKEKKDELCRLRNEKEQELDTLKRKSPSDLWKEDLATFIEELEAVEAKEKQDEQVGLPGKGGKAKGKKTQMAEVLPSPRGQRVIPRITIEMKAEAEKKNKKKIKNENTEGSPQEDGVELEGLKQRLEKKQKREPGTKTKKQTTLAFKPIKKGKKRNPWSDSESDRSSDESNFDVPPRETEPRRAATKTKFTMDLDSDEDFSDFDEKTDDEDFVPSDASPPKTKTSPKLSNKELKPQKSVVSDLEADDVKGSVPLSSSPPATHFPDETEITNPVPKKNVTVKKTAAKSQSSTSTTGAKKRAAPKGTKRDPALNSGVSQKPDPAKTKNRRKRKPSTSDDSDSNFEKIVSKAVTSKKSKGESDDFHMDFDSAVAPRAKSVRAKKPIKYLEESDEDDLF

HCT-15 = test: Antiproliferative activity against human HCT-15 cells after 72 hrs by EZ-Cytox colorimetric assay; type: functional, cell-based; conditions: HCT-15, 72 h
HeLa = test: Antiproliferative activity against human HeLa cells after 72 hrs by EZ-Cytox colorimetric assay; type: functional, cell-based
[3] = molecular target: T1, DNA topoisomerase 1 (Homo sapiens); test: Inhibition of recombinant human topoisomerase 1 assessed as relaxation of supercoiled plasmid pBR322 DNA at 100 uM by agarose gel electrophoresis (reference value: 83.2%)
[4] = molecular target: DNA topoisomerase 2-alpha (Homo sapiens) (UniProt P11388); test: Inhibition of recombinant human topoisomerase 2alpha assessed as relaxation of supercoiled plasmid pBR322 DNA at 20 uM by agarose gel electrophoresis (reference value: 48.4%)
T47D = test: Antiproliferative activity against human T47D cells after 72 hrs by EZ-Cytox colorimetric assay; type: functional, cell-based
DU-145 = test: Antiproliferative activity against human DU-145 cells after 72 hrs by EZ-Cytox colorimetric assay; type: functional, cell-based; conditions: DU-145, 72 h
[5] = molecular target: T1, DNA topoisomerase 1 (Homo sapiens); test: Inhibition of recombinant human topoisomerase 1 assessed as relaxation of supercoiled plasmid pBR322 DNA at 100 uM by agarose gel electrophoresis (reference value: 90.6%)
[6] = molecular target: DNA topoisomerase 2-alpha (Homo sapiens) (UniProt P11388); test: Inhibition of recombinant human topoisomerase 2alpha assessed as relaxation of supercoiled plasmid pBR322 DNA at 100 uM by agarose gel electrophoresis (reference value: […]%)

inhibition [1] [%] | inhibition [2] [%] | inhibition [3] [%] | inhibition [4] [%] | inhibition [5] [%] | inhibition [6] [%] | SMILES | IC50 (HCT-15) [µM] | IC50 (HeLa) [µM] | IC50 (T47D) [µM] | IC50 (DU-145) [µM]
0 | 36.9 | 34.7 | 2.5 | – | – | O=C1c2ccccc2-c2nc(-c3ccc(F)cc3)cc(-c3ccccc3)c21 | 33.3 | > 50 | > 50 | 20.7
– | – | – | – | 7.6 | 0 | OC1c2ccccc2-c2nc(-c3cccc(Cl)c3)cc(-c3ccccc3)c21 (stereo not drawn) | > 50 | > 50 | > 50 | > 50
– | – | – | – | 6.3 | 0 | OC1c2ccccc2-c2nc(-c3ccc(Cl)cc3)cc(-c3ccccc3)c21 (stereo not drawn) | > 50 | > 50 | > 50 | 35.1
– | – | – | – | – | – | COc1cccc2c1C(=O)c1c(O)c3c(c(O)c1C2=O)C[C@@](O)(C(=O)CO)C[C@@H]3O[C@H]1C[C@H](N)[C@H](O)[C@H](C)O1 [DOXORUBICIN HYDROCHLORIDE] | 136 | 1.36 | 1.48 | 2.99
0 | 93.3 | 66.7 | 71.8 | – | – | O=C1c2ccccc2-c2nc(-c3ccccc3Cl)cc(-c3ccccc3)c21 | > 50 | > 50 | > 50 | > 50
– | – | – | – | 6.1 | 0 | OC1c2ccccc2-c2nc(-c3cccc(F)c3)cc(-c3ccccc3)c21 (stereo not drawn) | > 50 | > 50 | > 50 | > 50
– | – | – | – | 7.6 | 0 | OC1c2ccccc2-c2nc(-c3ccccc3Cl)cc(-c3ccccc3)c21 (stereo not drawn) | 3.37 | 10.4 | 1.48 | 0.41
– | – | – | – | 7.1 | 0 | OC1c2ccccc2-c2nc(-c3ccc(F)cc3)cc(-c3ccccc3)c21 (stereo not drawn) | > 50 | > 50 | > 50 | > 50
0 | 83.8 | 82.9 | 5.3 | – | – | O=C1c2ccccc2-c2nc(-c3cccc(Br)c3)cc(-c3ccccc3)c21 | 17.9 | 20.2 | 28 | 9.48
– | – | – | – | 10.5 | 0 | OC1c2ccccc2-c2nc(-c3ccc(Br)cc3)cc(-c3ccccc3)c21 (stereo not drawn) | > 50 | > 50 | 28.7 | 2.11
0 | 98.1 | 85.7 | 89.2 | – | – | O=C1c2ccccc2-c2nc(-c3cccc(Cl)c3)cc(-c3ccccc3)c21 | 23.4 | > 50 | > 50 | 14.4
– | – | – | – | 6.7 | 0 | OC1c2ccccc2-c2nc(-c3ccccc3F)cc(-c3ccccc3)c21 (stereo not drawn) | > 50 | > 50 | > 50 | > 50
– | 0 | 26.7 | – | – | – | O=C1c2ccccc2-c2nc(-c3ccccc3F)cc(-c3ccccc3)c21 | 49.2 | > 50 | > 50 | > 50
– | – | – | – | 8.6 | 0 | OC1c2ccccc2-c2nc(-c3cccc(Br)c3)cc(-c3ccccc3)c21 (stereo not drawn) | > 50 | > 50 | > 50 | 43.2
0 | 0 | 34.2 | – | – | – | O=C1c2ccccc2-c2nc(-c3cccc(F)c3)cc(-c3ccccc3)c21 | > 50 | > 50 | > 50 | > 50
– | – | – | – | 12.6 | 0.2 | OC1c2ccccc2-c2nc(-c3ccccc3Br)cc(-c3ccccc3)c21 (stereo not drawn) | 7.03 | 16 | 1.55 | 6.48
